Read-outs that look alike come from different tables or passages of the source.
Test: Ocular tissue concentrations (aqueous humor, vitreous humor, iris, retina, choroid, cornea) after topical ocular, subcutaneous and intravitreal administration
Type: in vivo, New Zealand White rabbits
Settings: for concentration at 0.5 h / concentration at 0.5 hr / concentration at 1 h / concentration at 2 h / concentration at 4 h: subcutaneous, 5 mg/kg/dose; for Cornea Conc. (ng/mL) OS: TABLE 16: Cornea homogenate
Experimental: To measure the concentration of Compound 1 in plasma and ocular tissues following topical ocular, subcutaneous, and intravitreal administration, New Zealand White rabbits were administered Compound 1, and plasma and ocular samples were collected at pre-determined time points. Compound 1 formulations were prepared fresh on each day of dosing.
Ocular tissue samples from both eyes of each animal were collected and weights were recorded. Plasma and ocular tissue sample concentrations of Compound 1 were determined by LC-MS/MS.
New Zealand White rabbits weighing 2.5 to 3.5 kg were used on this study. Rabbits were housed one per cage. Animals were not fasted and only healthy animals with no ocular illness were used. Two rabbits per group were sacrificed at each of four ocular tissue sampling time points for a total of eight rabbits per group.
Animals were anesthetized for ocular (topical) and intravitreal dosing following the 12IA7 IACUC protocol. Each rabbit received a bolus dose of test formulation either via topical ocular administration 3 times daily on Days 1 and 2 (at 0, 6, and 12 hours), and once on Day 3 (at 0 hours) into both eyes; via intravitreal administration into both eyes once on Day 1 (at 0 hours); or via subcutaneous administration 2 times daily on Days 1 and 2 (at 0 and 8 hours) and once daily on Day 3 (at 0 hours). Doses were given within an approximately 1 hour window each day where applicable.
On Day 1, for intravitreal administration, or on Day 3, for topical ocular and subcutaneous administration, at the appropriate ocular tissue collection time points, animals were euthanized and both eyes were enucleated immediately. Following enucleation, each eye was rinsed with phosphate-buffered saline. Ocular tissue samples from both eyes of each animal were collected at predetermined time points and weights were recorded. All the samples were frozen immediately on dry ice, and stored at −60° C. to −80° C. pending bioanalysis.
An LC-MS/MS method was developed for the determination of Compound 1 in rabbit aqueous tissues (plasma, aqueous and vitreous humor) and solid ocular tissue samples. A pre-study standard curve was analyzed to determine the specificity, range, and lower limit of quantitation of the method. Plasma and tissue homogenate study samples were extracted and analyzed. All the samples were treated identically to the standards.
One eight-point standard curve was used in each analytical batch. To be accepted, each batch must have had at least five of eight standards with accuracy within ±20% of nominal, except at the lower limit of quantification (LLOQ), where ±25% was acceptable.
Concentration versus time data is plotted in FIGS. 3-16. All data are expressed as ng/g of the free drug. Samples that were below the limit of quantitation (0.2 ng/mL) were not used in the calculation of averages.

In the case of `COC(=O)N[C@@H](Cc1ccccc1)C(=O)N[C@@H](Cc1ccc(NS(=O)(=O)O)cc1)c1csc(-c2cccs2)n1` [Compound 1], the concentration at 48 h (New Zealand White, rabbit, retina, other: intravitreal, 2.5 mg/eye, Retina, 48 hr, sodium salt, intravitreal 2.5 mg/eye, Group 4, read-out: Retina Avg.) was 72600 ng/g, the concentration at 72 h (New Zealand White, rabbit, retina, other: intravitreal, 2.5 mg/eye, Retina, OD, sodium salt, intravitreal 2.5 mg/eye, Group 4, read-out: Retina Conc. (ng/g) OD) was 8250 ng/g and the concentration at 72 h (New Zealand White, rabbit, retina, other: intravitreal, 2.5 mg/eye, Retina, OS, sodium salt, intravitreal 2.5 mg/eye, Group 4, read-out: Retina Conc. (ng/g) OS) was 4070 ng/g. It also gave a concentration at 72 h (New Zealand White, rabbit, retina, other: intravitreal, 2.5 mg/eye, Retina, average, intravitreal 2.5 mg/eye (group 5), read-out: Avg.) of 109000 ng/g, a concentration at 72 h (New Zealand White, rabbit, retina, other: intravitreal, 2.5 mg/eye, Retina, left eye, intravitreal 2.5 mg/eye (group 5), individual animals, read-out: Conc. (ng/g) OS) of 119000 ng/g and a concentration at 72 h (New Zealand White, rabbit, retina, other: intravitreal, 2.5 mg/eye, Retina, right eye, intravitreal 2.5 mg/eye (group 5), individual animals, read-out: Conc. (ng/g) OD) of 109000 ng/g. For the same compound, the concentration at 72 h (New Zealand White, rabbit, retina, other: intravitreal, 2.5 mg/eye, Retina, sodium salt, intravitreal 2.5 mg/eye, Group 4, read-out: Retina Avg.) was 6060 ng/g, the concentration at 0.5 h (New Zealand White, rabbit, retina, Retina, OD, sodium salt, subcutaneous 5 mg/kg/dose, Group 2, read-out: Retina Conc. (ng/g) OD) was 30.5 ng/g and the concentration at 0.5 hr (New Zealand White, rabbit, retina, Retina, OS, sodium salt, subcutaneous 5 mg/kg/dose, Group 2, read-out: Retina Conc. (ng/g) OS) was 48 ng/g. It also gave a concentration at 0.5 h (New Zealand White, rabbit, retina, Retina, free acid, subcutaneous 5 mg/kg/dose, Group 3, read-out: Retina Average) of 38.7 ng/g, a concentration at 0.5 hr (New Zealand White, rabbit, retina, Retina, sodium salt, subcutaneous 5 mg/kg/dose, Group 2, read-out: Retina Average) of 40.5 ng/g and a concentration at 1 h (New Zealand White, rabbit, retina, Retina, 1 hr, OD, free acid, subcutaneous 5 mg/kg/dose, Group 3, read-out: Retina Conc. (ng/g) OD) of 10.4 ng/g. For the same compound, the concentration at 1 h (New Zealand White, rabbit, retina, Retina, 1 hr, OD, sodium salt, subcutaneous 5 mg/kg/dose, Group 2, read-out: Retina Conc. (ng/g) OD) was 22.4 ng/g, the concentration at 1 h (New Zealand White, rabbit, retina, Retina, 1 hr, OS, free acid, subcutaneous 5 mg/kg/dose, Group 3, read-out: Retina Conc. (ng/g) OS) was 6.93 ng/g and the concentration at 1 h (New Zealand White, rabbit, retina, Retina, 1 hr, OS, sodium salt, subcutaneous 5 mg/kg/dose, Group 2, read-out: Retina Conc. (ng/g) OS) was 43.2 ng/g. It also gave a concentration at 1 h (New Zealand White, rabbit, retina, Retina, 1 hr, free acid, subcutaneous 5 mg/kg/dose, Group 3, read-out: Retina Average) of 10.2 ng/g, a concentration at 1 h (New Zealand White, rabbit, retina, Retina, 1 hr, sodium salt, subcutaneous 5 mg/kg/dose, Group 2, read-out: Retina Average) of 32.6 ng/g and a concentration at 2 h (New Zealand White, rabbit, retina, Retina, 2 hr, OD, free acid, subcutaneous 5 mg/kg/dose, Group 3, read-out: Retina Conc. (ng/g) OD) of 6.31 ng/g. It also gave a concentration at 2 h (New Zealand White, rabbit, retina, Retina, 2 hr, OD, sodium salt, subcutaneous 5 mg/kg/dose, Group 2, read-out: Retina Conc. (ng/g) OD) of 15 ng/g, a concentration at 2 h (New Zealand White, rabbit, retina, Retina, 2 hr, OS, free acid, subcutaneous 5 mg/kg/dose, Group 3, read-out: Retina Conc. (ng/g) OS) of 6.93 ng/g and a concentration at 2 h (New Zealand White, rabbit, retina, Retina, 2 hr, OS, sodium salt, subcutaneous 5 mg/kg/dose, Group 2, read-out: Retina Conc. (ng/g) OS) of 17.8 ng/g. For the same compound, the concentration at 2 h (New Zealand White, rabbit, retina, Retina, 2 hr, free acid, subcutaneous 5 mg/kg/dose, Group 3, read-out: Retina Average) was 10.5 ng/g, the concentration at 2 h (New Zealand White, rabbit, retina, Retina, 2 hr, sodium salt, subcutaneous 5 mg/kg/dose, Group 2, read-out: Retina Average) was 16.4 ng/g and the concentration at 4 h (New Zealand White, rabbit, retina, Retina, 4 hr, OD, sodium salt, subcutaneous 5 mg/kg/dose, Group 2, read-out: Retina Conc. (ng/g) OD) was 19.7 ng/g. The concentration at 4 h (New Zealand White, rabbit, retina, Retina, 4 hr, free acid, subcutaneous 5 mg/kg/dose, Group 3, read-out: Retina Average) was 35.3 ng/g, the concentration at 4 h (New Zealand White, rabbit, retina, Retina, 4 hr, sodium salt, subcutaneous 5 mg/kg/dose, Group 2, read-out: Retina Average) was 19.7 ng/g and the concentration at 0.5 h (New Zealand White, rabbit, retina, TABLE 16: Retina, free acid, subcutaneous 5 mg/kg/dose, Group 3, read-out: Retina Average) was 38.7 ng/g. For the same compound, the concentration at 1 h (New Zealand White, rabbit, retina, TABLE 16: Retina, 1 hr, OD, free acid, subcutaneous 5 mg/kg/dose, Group 3, read-out: Retina Conc. (ng/g) OD) was 10.4 ng/g, the concentration at 1 h (New Zealand White, rabbit, retina, TABLE 16: Retina, 1 hr, OS, free acid, subcutaneous 5 mg/kg/dose, Group 3, read-out: Retina Conc. (ng/g) OS) was 6.93 ng/g and the concentration at 1 h (New Zealand White, rabbit, retina, TABLE 16: Retina, 1 hr, free acid, subcutaneous 5 mg/kg/dose, Group 3, read-out: Retina Average) was 10.2 ng/g. For the same compound, the concentration at 2 h (New Zealand White, rabbit, retina, TABLE 16: Retina, 2 hr, OD, free acid, subcutaneous 5 mg/kg/dose, Group 3, read-out: Retina Conc. (ng/g) OD) was 6.31 ng/g, the concentration at 2 h (New Zealand White, rabbit, retina, TABLE 16: Retina, 2 hr, OS, free acid, subcutaneous 5 mg/kg/dose, Group 3, read-out: Retina Conc. (ng/g) OS) was 6.93 ng/g and the concentration at 2 h (New Zealand White, rabbit, retina, TABLE 16: Retina, 2 hr, free acid, subcutaneous 5 mg/kg/dose, Group 3, read-out: Retina Average) was 10.5 ng/g. For the same compound, the concentration at 4 h (New Zealand White, rabbit, retina, TABLE 16: Retina, 4 hr, free acid, subcutaneous 5 mg/kg/dose, Group 3, read-out: Retina Average) was 35.3 ng/g, the “Retina Conc. (ng/mL) OD” value (Retina homogenate, 4 hr, OD, free acid, subcutaneous 5 mg/kg/dose, Group 3) was “BLOQ (Below the limit of quantitation (0.5 ng/mL))” and the “Retina Conc. (ng/mL) OS” value (Retina homogenate, 4 hr, OS, sodium salt, subcutaneous 5 mg/kg/dose, Group 2) was “BLOQ (Below the limit of quantitation (0.5 ng/mL))”. For the same compound, the “Cornea Conc. (ng/mL) OS” value (1 hr, OS, free acid, subcutaneous 5 mg/kg/dose, Group 3) was “BLOQ (Below the limit of quantitation (0.5 ng/mL))”, the “Cornea Conc. (ng/mL) OS” value (2 hr, OS, free acid, subcutaneous 5 mg/kg/dose, Group 3) was “BLOQ (Below the limit of quantitation (0.5 ng/mL))” and the “Retina Conc. (ng/mL) OD” value (TABLE 16: Retina homogenate, 4 hr, OD, free acid, subcutaneous 5 mg/kg/dose, Group 3) was “BLOQ (Below the limit of quantitation (0.5 ng/mL))”. The “rank order of exposure in aqueous and vitreous humor by route” value (intravitreal, topical ocular, subcutaneous administration) was “intravitreal>>topical ocular>subcutaneous administration”.

— patent US11666558B2, “Methods of treating intraocular pressure with activators of Tie-2” (EyePoint Pharmaceuticals, Inc., priority 2015, dated 2023)
